Experimental data from patent US7078438B2, “N-(4 substituted phenyl)-anthranilic acid hydroxamate esters” (Warner-Lambert Company, priority 2002, dated 2006).

How the values were obtained:
MEK = assay: Cellular assay for measuring MEK inhibition (inhibition of ERK phosphorylation); assay type: cell-based; conditions: inhibition of phosphorylation of MAP kinase (ERK) in murine colon 26 (C26) carcinoma cells; 1 hour at 37° C.; Western blotting
Procedure: Cellular Assay for Measuring MEK Inhibition
The evaluation of the compounds as MEK inhibitors is performed in an assay that measures their ability to inhibit phosphorylation of MAP kinase (ERK) in murine colon 26 (C26) carcinoma cells. Since ERK1 and ERK2 represent the only known substrates for MEK, measurement of inhibition of ERK phosphorylation in cells provides direct readout of cellular MEK inhibition by the compounds of the invention. Briefly, the assay involves treating exponentially growing C26 cells with varying concentrations of the test compound (or vehicle control) for 1 hour at 37° C. Cells are then rinsed free of compound/vehicle and lysed in a solution containing 70 mM NaCl, 50 mM glycerol phosphate, 10 mM HEPES, pH 7.4, 1% Triton X-100, 1 mM Na3VO4, 100 μM PMSF, 10 μM leupeptin, and 10 μM pepstatin. Supernatants are then subjected to gel electrophoresis and Western blotting using a primary antibody recognizing dually phosphorylated ERK1 and ERK2. To evaluate total MAPK levels, blots were subsequently ‘stripped’ and re-probed with a 1:1 mixture of polyclonal antibodies recognizing unphosphorylated ERK1 and ERK2.
The inhibition data generated by the above protocol is disclosed in Table 1. If several concentrations of inhibitor were tested, IC50 values (the concentration which gives 50% inhibition) were determined graphically from the dose response curve for % inhibition. Otherwise, percent inhibitions at measured concentrations are reported.

Structure (SMILES)	IC50 (MEK) [nM]	melting point [°C]
CCc1ccc(Nc2c(C(=O)NOCCO)ccc(F)c2F)c(Cl)c1 [Example 2, 2-(2-Chloro-4-ethyl-phenylamino)-3,4-difluoro-N-(2-hydroxy-ethoxy)-benzamide]	8.6	142.5 to 145
O=C(NOCCO)c1ccc(F)c(F)c1Nc1ccc(C#CCO)cc1F [Example 10, 3,4-Difluoro-2-[2-fluoro-4-(3-hydroxy-1-propynyl)anilino]-N-(2-hydroxyethoxy)benzamide]	130	169 to 172
O=C(NOCCO)c1ccc(F)c(F)c1Nc1ccc(C#CCCO)cc1F [Example 11, 3,4-Difluoro-2-[2-fluoro-4-(4-hydroxy-1-butynyl)anilino]-N-(2-hydroxyethoxy)benzamide]	700	126 to 129
CC(C)(O)C#Cc1ccc(Nc2c(C(=O)NOCCO)ccc(F)c2F)c(F)c1 [Example 12, 3,4-Difluoro-2-[2-fluoro-4-(3-hydroxy-3-methyl-1-butynyl)anilino]-N-(2-hydroxyethoxy)benzamide]	> 3000	139 to 142
NCCCc1ccc(Nc2c(C(=O)NOCCO)ccc(F)c2F)c(F)c1 [Example 14, 2-[4-(3-Aminopropyl)-2-fluoroanilino]-3,4-difluoro-N-(2-hydroxyethoxy)benzamide]	> 1000	178 to 181
CN(C)CCCc1ccc(Nc2c(C(=O)NOCCO)ccc(F)c2F)c(F)c1 [Example 15, 2-{4-[3-(Dimethylamino)propyl]-2-fluoroanilino}-3,4-difluoro-N-(2-hydroxyethoxy)benzamide]	> 1000	
O=C(NOCCO)c1ccc(F)c(F)c1Nc1ccc(CO)cc1 [Example 17, 3,4-Difluoro-N-(2-hydroxyethoxy)-2-[[4-(hydroxymethyl)phenyl]amino]benzamide]	> 1000	73 to 77
O=C(NOCCO)c1ccc(F)c(F)c1Nc1ccc(CCCCO)cc1F [Example 21, 3,4-Difluoro-2-[2-fluoro-4-(4-hydroxybutyl)anilino]-N-(2-hydroxyethoxy)benzamide]	800	65 to 69
CC(C)(O)CCc1ccc(Nc2c(C(=O)NOCCO)ccc(F)c2F)c(F)c1 [Example 23, 3,4-Difluoro-2-[2-fluoro-4-(3-hydroxy-3-methylbutyl)anilino]-N-(2-hydroxyethoxy)benzamide]	200	
CS(=O)(=O)c1ccc(Nc2c(C(=O)NOCCO)ccc(F)c2F)c(F)c1 [Example 28, 3,4-Difluoro-2-[[2-fluoro-4-(methylsulfonyl)phenyl]amino]-N-(2-hydroxyethoxy)benzamide]	720	85 to 88
CCCc1ccc(Nc2c(C(=O)NOCCO)ccc(F)c2F)c(F)c1 [Example 29, 3,4-Difluoro-2-(2-fluoro-4-propylanilino)-N-(2-hydroxyethoxy)benzamide]	4.1	144 to 146
CCCCc1ccc(Nc2c(C(=O)NOCCO)ccc(F)c2F)c(F)c1 [Example 30, 2-(4-Butyl-2-fluoroanilino)-3,4-difluoro-N-(2-hydroxyethoxy)benzamide]	190	
CCc1ccc(Nc2c(C(=O)NOC[C@@H](O)CO)ccc(F)c2F)c(F)c1 [Example 32, N-[(S+)2,3-Dihydroxy-propoxy]-2-(4-ethyl-2-fluoro-phenylamino)-3,4-difluoro-benzamide]	2	
CCc1ccc(Nc2c(C(=O)NOC(CO)CO)ccc(F)c2F)c(F)c1 [Example 33, 2-(4-Ethyl-2-fluoro-phenylamino)-3,4-difluoro-N-(2-hydroxy-1-hydroxymethyl-ethoxy)-benzamide]		91 to 93

Now from value to molecule:

IC50 (MEK) [nM]	melting point [°C]	Structure (SMILES)
2.8		CCc1ccc(Nc2c(C(=O)NOCCO)ccc(F)c2F)c(F)c1 [Example 1, 2-[(4-Ethyl-2-fluorophenyl)amino]-3,4-difluoro-N-(2-hydroxyethoxy)benzamide]
0.15	134 to 139	Cc1ccc(Nc2c(C(=O)NOCCO)ccc(F)c2F)c(F)c1 [Example 3, 3,4-Difluoro-2-(2-fluoro-4-methylanilino)-N-(2-hydroxyethoxy)benzamide]
2.6	134 to 138	C=Cc1ccc(Nc2c(C(=O)NOCCO)ccc(F)c2F)c(F)c1 [Example 4, 3,4-Difluoro-2-[(2-fluoro-4-vinylphenyl)amino]-N-(2-hydroxyethoxy)benzamide]
7.8	173 to 177	C=CCc1ccc(Nc2c(C(=O)NOCCO)ccc(F)c2F)c(F)c1 [Example 6, 2-(4-Allyl-2-fluoroanilino)-3,4-difluoro-N-(2-hydroxyethoxy)benzamide]
0.15	158 to 161	C#Cc1ccc(Nc2c(C(=O)NOCCO)ccc(F)c2F)c(F)c1 [Example 7]
4	155 to 157	C#Cc1ccc(Nc2c(C(=O)NOCCO)ccc(F)c2F)c(Cl)c1 [Example 8, 2-(2-Chloro-4-ethynyl-phenylamino)-3,4-difluoro-N-(2-hydroxy-ethoxy)-benzamide]
467	72 to 76	NCC#Cc1ccc(Nc2c(C(=O)NOCCO)ccc(F)c2F)c(F)c1 [Example 9, 2-[4-(3-Amino-1-propynyl)-2-fluoroanilino]-3,4-difluoro-N-(2-hydroxyethoxy)benzamide]
> 1000	127 to 131	CCC(C)(O)C#Cc1ccc(Nc2c(C(=O)NOCCO)ccc(F)c2F)c(F)c1 (stereo not shown) [Example 13, 3,4-Difluoro-2-[2-fluoro-4-(3-hydroxy-3-methyl-1-pentynyl)anilino]-N-(2-hydroxyethoxy)benzamide]
> 1000	112 to 116	CNCCCc1ccc(Nc2c(C(=O)NOCCO)ccc(F)c2F)c(F)c1 [Example 16, 3,4-Difluoro-2-{2-fluoro-4-[3-(methylamino)propyl]anilino}-N-(2-hydroxyethoxy)benzamide]
	108 to 110	O=C(NOCCO)c1ccc(F)c(F)c1Nc1ccc(CO)cc1F [Example 18, 3,4-Difluoro-2-[2-fluoro-4-(hydroxymethyl)anilino]-N-(2-hydroxyethoxy)benzamide]
	115 to 116	O=C(NOCCO)c1ccc(F)c(F)c1Nc1ccc(CCCO)cc1F [Example 20, 3,4-Difluoro-2-[2-fluoro-4-(3-hydroxypropyl)anilino]-N-(2-hydroxyethoxy)benzamide]
	118 to 120	O=C(NOCCO)c1ccc(F)c(F)c1Nc1ccc(CC(O)CO)cc1F (stereo not shown) [Example 22, 2-[4-(2,3-Dihydroxypropyl)-2-fluoroanilino]-3,4-difluoro-N-(2-hydroxyethoxy)benzamide]
590		CCC(C)(O)CCc1ccc(Nc2c(C(=O)NOCCO)ccc(F)c2F)c(F)c1 (stereo not shown) [Example 24, 3,4-Difluoro-2-[2-fluoro-4-(3-hydroxy-3-methylpentyl)anilino]-N-(2-hydroxyethoxy)benzamide]
22		COCCCc1ccc(Nc2c(C(=O)NOCCO)ccc(F)c2F)c(F)c1 [Example 25, 3,4-Difluoro-2-[[2-fluoro-4-(3-methoxypropyl)phenyl]amino]-N-(2-hydroxyethoxy)benzamide]
0.85	108 to 111	CSc1ccc(Nc2c(C(=O)NOCCO)ccc(F)c2F)c(F)c1 [Example 26, 3,4-Difluoro-2-[[2-fluoro-4-(methylthio)phenyl]amino]-N-(2-hydroxyethoxy)benzamide]
2.2	129 to 132	CCSc1ccc(Nc2c(C(=O)NOCCO)ccc(F)c2F)c(F)c1 [Example 27, 3,4-Difluoro-2-[[2-fluoro-4-(ethylthio)phenyl]amino]-N-(2-hydroxyethoxy)benzamide]
